target: AMPK; assay: AMPK activation, enzyme-linked immunosorbent assay; assay type: biochemical; conditions: EC50 for AMPK activation, ELISA
Outline: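 Read-out: immunodetected kinase activation after compound exposure, run with commercial kit reagents.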

Compound | EC50 [nM]
COc1ccc(C(=O)C2CCN(C(=O)c3ccc(C(=O)N[C@H]4CC[C@@H](Oc5ccc(F)cc5)CC4)cn3)CC2)cc1 [Compound 316, N-((cis)-4-(4-fluorophenoxy)cyclohexyl)-6-(4-(4-methoxybenzoyl)piperidine-1-carbonyl)nicotinamide] | < 500
N#Cc1ccc(CN2CCC(NC(=O)c3ccc(C(=O)NC4CCN(c5ccc(C#N)cc5)CC4)cn3)CC2)cc1 [Compound 166, N2-(1-(4-cyanobenzyl)piperidin-4-yl)-N5-(1-(4-cyanophenyl)piperidin-4-yl)pyridine-2,5-dicarboxamide] | < 500
COc1ccc(OC2CCN(C(=O)c3ccc(C(=O)NC4CCN(Cc5ccc(C#N)cc5)CC4)cn3)CC2)c(NS(C)(=O)=O)c1 [Compound 389, N-(1-(4-cyanobenzyl)piperidin-4-yl)-6-(4-(4-methoxy-2-(methylsulfonamido)phenoxy)piperidine-1-carbonyl)nicotinamide] | 1000 to 5000
CC(=O)Nc1ccc(OC2CCN(C(=O)c3ccc(C(=O)NC4CCN(Cc5cccc(OC(F)(F)F)c5)CC4)cn3)CC2)cc1 [Compound 428, 6-(4-(4-acetamidophenoxy)piperidine-1-carbonyl)-N-(1-(3-(trifluoromethoxy)benzyl)piperidin-4-yl)nicotinamide] | 500 to 1000
COc1ccc(C(=O)C2CCN(C(=O)c3ccc(C(=O)NC4CCN(Cc5ccc(C#N)cc5)CC4(F)F)cn3)CC2)cc1 (centres unmarked) [Compound 498, N-(1-(4-cyanobenzyl)-3,3-difluoropiperidin-4-yl)-6-(4-(4-methoxybenzoyl)piperidine-1-carbonyl)nicotinamide] | < 500
N#Cc1ccc(CN2CCC(NC(=O)c3ccc(C(=O)N4CCC(C(=O)c5ccc(N6CCCC6)cc5)CC4)cn3)CC2)cc1 [Compound 365, N-(1-(4-cyanobenzyl)piperidin-4-yl)-5-(4-(4-(pyrrolidin-1-yl)benzoyl)piperidine-1-carbonyl)picolinamide] | < 500
CS(=O)(=O)c1ccc(C(=O)C2CCN(C(=O)c3ccc(C(=O)NC4CCN(Cc5ccc(C#N)cc5)CC4)nc3)CC2)cc1 [Compound 228, N-(1-(4-cyanobenzyl)piperidin-4-yl)-5-(4-(4-(methylsulfonyl)benzoyl)piperidine-1-carbonyl)picolinamide] | < 500
COc1ccc(C(=O)C2CCN(C(=O)c3ccc(C(=O)NC4CCN(Cc5ccc(C#N)cc5)CC4)nc3)CC2)cc1 [Compound 129, N-(1-(4-cyanobenzyl)piperidin-4-yl)-5-(4-(4-methoxybenzoyl)piperidine-1-carbonyl)picolinamide] | < 500
CS(=O)(=O)c1ccc(C(=O)C2CCN(C(=O)c3ccc(C(=O)N[C@@H]4CCN(Cc5ccc(OC(F)(F)F)cc5)C[C@H]4F)nc3)CC2)cc1 (relative stereo) [Compound 253, N-((trans)-3-fluoro-1-(4-(trifluoromethoxy)benzyl)piperidin-4-yl)-5-(4-(4-(methylsulfonyl)benzoyl)piperidine-1-carbonyl)picolinamide] | 500 to 1000
CN1CCN(c2ccc(C(=O)C3CCN(C(=O)c4ccc(C(=O)Nc5ccc(Oc6ccc(F)cc6)nc5)cn4)CC3)cc2)CC1 [Compound 245, N-(6-(4-fluorophenoxy)pyridin-3-yl)-6-(4-(4-(4-methylpiperazin-1-yl)benzoyl)piperidine-1-carbonyl)nicotinamide] | < 500
O=C(Nc1ccc(Br)cc1)c1ccc(C(=O)N2CCN(Cc3ccc(F)cc3)CC2)cn1 [Compound 28, N-(4-bromophenyl)-5-(4-(4-fluorobenzyl)piperazine-1-carbonyl)picolinamide] | 500 to 1000
N#Cc1ccc(OC2CCN(C(=O)c3ccc(C(=O)NC4CCN(Cc5ccc(F)cc5)CC4)nc3)CC2)cc1 [Compound 200, 5-(4-(4-cyanophenoxy)piperidine-1-carbonyl)-N-(1-(4-fluorobenzyl)piperidin-4-yl)picolinamide] | < 500
COc1ccc(C(=O)C2CCN(c3ccc(C(=O)NC4CCN(Cc5ccc(C#N)cc5)CC4)nc3)CC2)cc1 [Compound 302, N-(1-(4-cyanobenzyl)piperidin-4-yl)-5-(4-(4-methoxybenzoyl)piperidin-1-yl)picolinamide] | < 500
COc1ccc(C(=O)C2CCN(C(=O)c3ccc(C(=O)Nc4ccc(Oc5ccc(C#N)cc5)nc4)cn3)CC2)cc1 [Compound 460, N-(6-(4-cyanophenoxy)pyridin-3-yl)-6-(4-(4-methoxybenzoyl)piperidine-1-carbonyl)nicotinamide] | < 500
CS(=O)(=O)c1ccc(C(=O)C2CCN(C(=O)c3ccc(C(=O)N[C@@H]4CCN(Cc5ccc(C#N)cc5)C[C@H]4F)nc3)CC2)cc1 (relative stereo) [Compound 252, N-((trans)-1-(4-cyanobenzyl)-3-fluoropiperidin-4-yl)-5-(4-(4-(methylsulfonyl)benzoyl)piperidine-1-carbonyl)picolinamide] | 500 to 1000
CC(=O)Nc1cccc(OC2CCN(C(=O)c3ccc(C(=O)NC4CCN(Cc5ccc(F)cc5)CC4)cn3)CC2)c1 [Compound 413, 6-(4-(3-acetamidophenoxy)piperidine-1-carbonyl)-N-(1-(4-fluorobenzyl)piperidin-4-yl)nicotinamide] | 1000 to 5000

Compound | EC50 [nM]
O=C(c1cccc(C(=O)N2CCN(c3ccccc3)CC2)n1)N1CCN(Cc2ccc(F)cc2)CC1 [Compound 94, (4-(4-fluorobenzyl)piperazin-1-yl)(6-(4-phenylpiperazine-1-carbonyl)pyridin-2-yl)methanone] | > 10000
N#Cc1ccc(CN2CCC(NC(=O)c3ccc(C(=O)N4CCN(C(=O)c5ccccc5)CC4)cn3)CC2)cc1 [Compound 80, 5-(4-benzoylpiperazine-1-carbonyl)-N-(1-(4-cyanobenzyl)piperidin-4-yl)picolinamide] | 1000 to 5000
O=C(NC1CCN(Cc2ccc(OC(F)(F)F)cc2)CC1)c1ccc(C(=O)N2CCC(Oc3ccc(C(=O)C4CC4)cc3)CC2)nc1 [Compound 455, 6-(4-(4-(cyclopropanecarbonyl)phenoxy)piperidine-1-carbonyl)-N-(1-(4-(trifluoromethoxy)benzyl)piperidin-4-yl)nicotinamide] | < 500
N#Cc1ccc(CN2CCC(NC(=O)c3ccc(C(=O)N4CCC(Oc5ccc([N+](=O)[O-])cc5)CC4)nc3)CC2)cc1 [Compound 363, N-(1-(4-cyanobenzyl)piperidin-4-yl)-6-(4-(4-nitrophenoxy)piperidine-1-carbonyl)nicotinamide] | < 500
CS(=O)(=O)c1ccc(C(=O)C2CCN(C(=O)c3ccc(C(=O)Nc4ccc(Oc5ccc(F)cc5)nc4)cn3)CC2)cc1 [Compound 224, N-(6-(4-fluorophenoxy)pyridin-3-yl)-6-(4-(4-(methylsulfonyl)benzoyl)piperidine-1-carbonyl)nicotinamide] | < 500
COc1ccc(C(=O)C2CCN(C(=O)c3ccc(C(=O)NC4CCN(Cc5ccc(C(=O)N(C)C)cc5)CC4)cn3)CC2)cc1 [Compound 490, N-(1-(4-(dimethylcarbamoyl)benzyl)piperidin-4-yl)-6-(4-(4-methoxybenzoyl)piperidine-1-carbonyl)nicotinamide] | 1000 to 5000
N#Cc1ccc(CN2CCC(NC(=O)c3ccc(C(=O)N4CCN(CC5CCCCC5)CC4)cn3)CC2)cc1 [Compound 95, N-(1-(4-cyanobenzyl)piperidin-4-yl)-5-(4-(cyclohexylmethyl)piperazine-1-carbonyl)picolinamide] | < 500
COc1ccc(OC2CCN(C(=O)c3ccc(C(=O)NC4CCN(Cc5ccc(C#N)cc5)CC4)cn3)CC2)c([N+](=O)[O-])c1 [Compound 378, N-(1-(4-cyanobenzyl)piperidin-4-yl)-6-(4-(4-methoxy-2-nitrophenoxy)piperidine-1-carbonyl)nicotinamide] | < 500
N#Cc1ccc(CN2CCC(NC(=O)c3ccc(C(=O)N4CCC(Oc5ccc(SC(F)(F)F)cc5)CC4)cn3)CC2)cc1 [Compound 410, N-(1-(4-cyanobenzyl)piperidin-4-yl)-5-(4-(4-(trifluoromethylthio)phenoxy)piperidine-1-carbonyl)picolinamide] | < 500
O=C(Nc1ccc(Oc2ccc(F)cc2)nc1)c1ccc(C(=O)N2CCC(C(=O)c3ccc(N4CCCC4)cc3)CC2)nc1 [Compound 382, N-(6-(4-fluorophenoxy)pyridin-3-yl)-6-(4-(4-(pyrrolidin-1-yl)benzoyl)piperidine-1-carbonyl)nicotinamide] | < 500
CS(=O)(=O)c1ccc(C(=O)C2CCN(C(=O)c3ccc(C(=O)NC4CCN(Cc5ccc(F)cc5)CC4)cn3)CC2)cc1 [Compound 222, N-(1-(4-fluorobenzyl)piperidin-4-yl)-6-(4-(4-(methylsulfonyl)benzoyl)piperidine-1-carbonyl)nicotinamide] | 1000 to 5000
COc1ccc(C(=O)C2CCN(C(=O)c3ccc(C(=O)N[C@@H]4CCN(Cc5ccc(C#N)c(F)c5)C[C@H]4F)cn3)CC2)cc1 (relative stereo) [Compound 354, N-((trans)-1-(4-cyano-3-fluorobenzyl)-3-fluoropiperidin-4-yl)-6-(4-(4-methoxybenzoyl)piperidine-1-carbonyl)nicotinamide] | < 500
N#Cc1ccc(CN2CCC(NC(=O)c3ccc(C(=O)N4CCN(S(=O)(=O)c5ccc(F)cc5)CC4)cn3)CC2)cc1 [Compound 78, N-(1-(4-cyanobenzyl)piperidin-4-yl)-5-(4-(4-fluorophenylsulfonyl)piperazine-1-carbonyl)picolinamide] | < 500
CC(=O)c1ccc(OC2CCN(C(=O)c3ccc(C(=O)Nc4ccc(Oc5ccc(F)cc5)nc4)nc3)CC2)cc1 [Compound 359, 5-(4-(4-acetylphenoxy)piperidine-1-carbonyl)-N-(6-(4-fluorophenoxy)pyridin-3-yl)picolinamide] | < 500
O=C(NC1CCN(C(=O)C2CCCCC2)CC1)c1ccc(C(=O)N2CCN(Cc3ccc(F)cc3)CC2)cn1 [Compound 7, N-(1-(cyclohexanecarbonyl)piperidin-4-yl)-5-(4-(4-fluorobenzyl)piperazine-1-carbonyl)picolinamide] | < 500
O=C(NC1CCN(Cc2ccccc2)CC1)c1ccc(C(=O)N2CCN(Cc3ccccc3)CC2)cn1 [Compound 72, 5-(4-benzylpiperazine-1-carbonyl)-N-(1-benzylpiperidin-4-yl)picolinamide] | < 500

Source: patent US9663496B2, “AMPK-activating heterocyclic compounds and methods for using the same” (Rigel Pharmaceuticals, Inc., priority 2010, dated 2017)
